# Reference: US20240041813A1, “VERY-LONG-CHAIN POLYUNSATURATED FATTY ACIDS, ELOVANOID HYDROXYLATED DERIVATIVES, AND METHODS OF USE” (priority 2020, published 2024)
# Entries after “also recorded” stand apart in the source; their conditions may differ.
# How the values were obtained:
# ACE-2 receptor = experiment: ACE-2 protein abundance by Jess capillary western in human alveoli in culture; assay type: cell-based; details: effect dependent on addition of IL-1b
# From the text: The Simple Protein platform Jess allows running a protein mixture in a capillary system that also serves as a probing matrix for the antibodies. This platform obviates the need to transfer the size-separated proteins onto a membrane with the consequent loss of sample. The sample amount that can be run in Jess is several times smaller than that required for Western blots. Therefore, high throughput is facilitated in cell cultures. The antibodies to this protein have been validated in our laboratory.
# c.1.b. Protein abundance using Jess technology. The Simple Protein platform Jess allows running a protein mixture in a capillary electrophoretic system as a probing matrix for the antibodies (we refer to western blot as “Jess WB” here). This platform obviates the need to transfer the size-separated proteins onto a membrane with a potential loss of sample. The sample size run in Jess is several times smaller than that for classical WB. (400 ng protein/capillary column vs. 10 or more μg for classical WB). The proteins we assess will include ACE2, Furin, ADAM17, DPP4, TMPRSS2, protein surfactant D, and Cathepsin L. In addition, senescence and SASP proteins will also be analyzed. […]
# ACE2 Protein abundance using Jess technology. […] Soluble protein concentration was determined by BCA assay (Thermo Fisher Scientific, Cat. 23225) and 0.4 μg used/reaction. […]
# ACE2 = experiment: HCEC challenged with IFNγ: Ace2 gene expression; assay type: cell-based, human; details: IFNγ 100 ng/ml
# From the text: All experiments with human corneal epithelial cells were approved by the Institutional Review Board of LSUHNO and conducted in accordance with NIH guidelines. HCEC were kept frozen in the laboratory at passage 2544. Cells were maintained in keratinocyte growth (KGM) medium containing the keratinocyte basal medium (KBM) (Lonza: CC-3101) supplemented with bovine pituitary extract (BPE), hEGF, Insulin, Hydrocortisone and Gentamicin Sulfate-Amphotericin (GA-1000) (Lonza, Cat. CC-4131). For all experiments, cells were seeded at 30,000 cells/cm2.
# For screening the stimulation of receptor ACE2 by cytokines, the HCEC were cultured with KGM until 50-60% confluence. Then, changed to KBM containing IL-1β, -2, -6 and 8, IFN-α, -ε, and -γ or TNFα at 1, 10 or 100 ng/ml. The cells were harvested after 6 hours and analyze for the gene expression of Ace2. In other experiments, HCEC were stimulated with IFNγ, and thereafter, lipid mediators were added. For the Alexa 594-conjugated RBD binding, IFNγ was used as a cytokine trigger. At 12 hours after cytokine exposure and lipid mediator treatments, […] of labeled RBD was added to the medium. The evaluation of RBD binding was conducted 24 hours after.
# Quantitative PCR was performed with the Biomark HD system (Fluidigm, San Francisco, CA, USA). […]
structure (smiles),measurement,setting,value
"CC/C=C\CC(O)\C=C/C=C/C=C/C(O)C/C=C\C/C=C\CCCCCCCCCCCCC(=O)O [ELV-N32, (14Z,17Z,20R,21E,23E,25Z,27S,29Z)-20,27-dihydroxydo-triaconta-14,17,21,23,25,29-hexaenoic acid]","expression of the ACE-2 receptor (protein abundance, Jess)",ACE-2 receptor,downregulate
same,IFNγ-triggered Ace2 activation,ACE2,markedly attenuated; also recorded: suppressed
